# Results from patent US20250361264A1, “PROTEIN MODIFYING REAGENT” (CANON KABUSHIKI KAISHA, priority 2023, published 2025).
# Key:
# fibroin sheet = biological target: T1, fibroin sheet (Bombyx mori, UniProt P05790); experiment: Color intensity of modified fibroin sheet after peroxidase DAB staining; assay type: biochemical; details: fibroin sheet adsorbed from 0.3 mg/mL solution; DAB staining solution 1.5 μL, 5 minutes; ImageJ; average of five sheets
# T1 construct: purchased Sigma-Aldrich
# Protocol: To 0.18 g of silk fibroin powder (manufactured by Sigma-Aldrich), 3.82 g of hexafluoro--2 propanol (HFIP) was added, and the mixture was stirred at room temperature using a mix rotor. Thereafter, filtration was performed using a filter (Millex-AP, Millipore) to obtain a 4.5 wt % fibroin solution. Fibroin solution (0.1 mL) was used to prepare and collect a sheet of fibroin fibers on an aluminum dish using an electrospinning device (NANON-03, MECC).
# After methanol was added to the collected sheet, methanol was removed and dried overnight. The measurement of the weight of the fibroin sheet cut into 20 mm×40 mm size confirmed that it was 1.25 μg/mm^2 fibroin sheet. […]
# To the fibroin sheet modified with Compound 1 obtained in Manufacturing Example 2, a staining solution (1.5 μL) of the peroxidase staining DAB kit (Brown Stain) (manufactured by Nacalai Tesque) was added dropwise and allowed to stand for 5 minutes in a wet box. […] After drying the sheet, the sheet was read by a scanner to acquire image data. The obtained image data were measured for color intensity using ImageJ software. Five sheets were made, and the same evaluation was carried out, and the average value of the color intensity (Color Intensity, hereinafter CI value) was calculated. The calculated CI value was 59.8.
# silk fibroin powder = biological target: T2, silk fibroin powder (Bombyx mori, UniProt P05790); experiment: Evaluation of adsorptivity of groups containing aromatic rings to proteins having β-sheet structures; assay type: binding; details: for Adsorption rate to fibroin (%): 0.02 mM, 0.15 mL methanol solution on 10 mg silk fibroin powder, dried, 0.15 mL water, 5 minutes stirring, supernatant absorbance; for Adsorptivity: class of adsorption rate to fibroin
# T2 construct: purchased Sigma-Aldrich
# Protocol: After distillation of methanol by air-drying, 0.15 mL of water was added. After stirring for 5 minutes, the supernatant was collected. The adsorption rate of groups containing aromatic rings to fibroin was calculated from the concentration of groups containing aromatic rings in the collected supernatant liquid and the change in concentration by absorbance measurement, the adsorptivity of groups containing aromatic rings to proteins having β-sheet structures was evaluated using the following criteria.
# “Evaluation A” and “Evaluation B” indicate the level at which groups containing aromatic rings adsorb strongly to proteins having a β-sheet structure, and “Evaluation C” indicates the low adsorptivity of groups containing aromatic rings.
# • A: 90% or more • B: 60% or more but less than 90% • C: Less than 60%
Compound,CI value (average color intensity) (fibroin sheet),Adsorption rate to fibroin (%) (silk fibroin powder),Adsorptivity (silk fibroin powder)
"HRP: horseradish peroxidase (manufactured by Sigma-Aldrich), unmodified comparison",39.5,–,–
O=C(O)CCNc1ccc(-c2nc3ccccc3s2)cc1 [Compound 2],–,79,B (60% or more but less than 90%)
Compound 1: Thioflavin T acid bound to horseradish peroxidase (HRP); one Thioflavin T acid molecule per HRP molecule,59.8,–,–
O=C(O)CCOc1ccccc1-c1nc2ccccc2s1 [Compound 4],–,71,B (60% or more but less than 90%)
Thioflavin T acid [reference compound],–,91,A (90% or more)
